Test results published in US20090211893A1, “Photo-Activatable Amino Acids” (priority 2005, published 2009).

How the values were obtained:
COS7 cells [1] = experiment: Cell viability by trypan blue exclusion; format: cell-based, monkey; conditions: LM-2 medium supplement; percent ± SD of viable cells (n = 6)
From the text: (§1) Unnatural amino acids frequently are toxic to cells. To find out if this is the case for photo-amino acids of the invention, we monitored in COS7 cells protein biosynthesis by incorporation of [^3H]Phe and viability by trypan blue exclusion of cells grown in the presence or absence of the photo-amino acids photo-Leu, photo-Met and photo-Ile. Due to the lack of two essential amino acids in the growth medium, protein biosynthesis is reduced to about 65% of that in a full growth medium. […] Although cells grew slightly slower than in full growth medium, viability (Table 2) and cell morphology (not shown) were unaffected.

caveolin-1 = experiment: Photo-crosslinking of transfected caveolin-1 in COS7 cells; format: cell-based, human; conditions: irradiated samples, COS7 cells in LM-4
Description: FIG. 3: Photo-crosslinking induced by photo-amino acids. COS7 cells (panels a,b) or HeLa cells (panel c) were grown in LM-4 (panel a) or LM-2 (panels b,c) in the absence or presence of L-photo-Leu (pL), L-photo-Met (pM) or DL-photo-Ile (pl) or mixtures of them (pLM or PLMI) followed by UV irradiation (+) or no irradiation (−). cross-linked products formed after UV-irradiation were detected by SDS-PAGE followed by western blotting using (a) anti-caveolin 1 to detect overexpressed caveolin 1, (b) anti-stomatin to detect endogenous stomatin or (c) anti-EEA1 to detect endogenous EEA1. In panel b, lanes 8 and 9 show cross-linking with two different concentrations of the chemical cross-linker DSS for comparison of cross-linking efficiency. In panel c, photocrosslinking of endogenous EEA1 by photo-Leu and photo-Met is compared to chemical cross-linking using DSS or para-formaldehyde (PFA) as indicated. Note that chemical cross-linking leads to protein aggregates that are not resolvable by SDS-PAGE while photocrosslinking identifies more than six discrete cross-linked bands.
COS7 (monkey kidney) cells were grown in DMEM high glucose (Gibco no. 11995; with L-glutamine and Na-pyruvate)+10% FCS. Typically, 3 cm2 of cells are needed for a cross-linking experiment with detection by western blotting. At about 70%, medium was replaced by LM-4 (DMEM lacking Met, Leu, Ile and Val and phenol red, supplemented with 5% dialyzed FCS) or by LM-2 (LM-4+1 mM of each Ile and Val). Photo-amino acids were added to a final concentration of 4 mM photo-Leu and photo-Ile, 1.7 mM photo-Met and cells were cultivated for further 22 h followed by washing with PBS and UV-irradiation using a 200 W high pressure mercury lamp (Oriel Photomax) with a glass filter to remove wavelengths shorter 310 nm. The samples were placed at a distance of 38 cm to the light source, corresponding to a illuminated area of 105 mm diameter. […] We used an irradiation time 1-3 min for experiments with living cells. […] Lysis of cells, SDS-PAGE and western blotting were done as described^33. […]

COS7 cells [2] = experiment: Protein biosynthesis by incorporation of [3H]Phe; format: cell-based, monkey; conditions: for Protein synthesis: LM-2 medium supplement, value in full DMEM medium set to 100, average ± SD of triplicate; for effect on protein biosynthesis: addition to LM-2 medium
From the text: as §1

[3] = system: E. coli beta-galactosidase; experiment: Activity of beta-galactosidase expressed in cells grown with photo-amino acids; format: cell-based, monkey; conditions: COS 7 cells, 20 h in LM-2 with photo-amino acid; percent ± SD (n = 6) of value in DMEM + FCS
From the text: We furthermore tested, whether proteins produced by cells grown with photo-amino acids are functional or not. For that, we transfected cells with GFP-fusion constructs of the small GTPase Rab5 and of mutated Rab5 that is constitutively activated (GFP-Rab5QL) or dominant negative (GFP-Rab5SN)^19 and monitored the GFP fluorescence by confocal microscopy. Four hours after transfection, when cells were switched to media containing photo-amino acids, no GFP signal was detectable (see FIG. 7). […] Both, staining intensity and localization were unaffected by the presence of either of the photo-amino acids. Taking into account a frequency of substitution of photo-Met for Met of 35% (see below) and the amounts of Met in Rab5 and GFP, more than 80% of the fusion protein will have photo-Met in both the Rab5- and the GFP-part of the fusion, more than 99% in at least one of the two parts. […] To corroborate this with a quantitative assay, we measured the activity of beta-galactosidase that was expressed in the absence or presence of photo-amino acids (see Table 4). Activity in LM-2 labeling medium was 79% of that in full DMEM. The addition of either of the three photo-amino acids or of a mixture of photo-Met and photo-Leu had no significant additional effect. E. coli beta-galactosidase contains 23 methionines of which on average 8 would be replaced by photo-Met; less than 0.01% of the protein are expected to have no substitution by photo-Met. We conclude that photo-amino acids are non-toxic to cultivated mammalian cells and can, at least partially, functionally replace branched chain amino acids and methionine.

COS7 cells [4] = experiment: Cell viability after UV irradiation by trypan blue exclusion; format: cell-based, monkey
HA-tagged human PGRMC1 = experiment: Competition of PGRMC1 cross-linking by natural amino acids; format: cell-based; conditions: 3 mM competing amino acid, COS7 cells in LM-4
Description: FIG. 4: Specificity of incorporation and cross-linking by photo-Met and photo-Leu. COS7 cells were transfected with HA-tagged human PGRMC1 and were grown in LM-4 in the absence or presence of photo-Leu (A) or photo-Met (B) with addition of 3 mM of the indicated competing amino acid. cross-linked products formed after UV-irradiation were detected by SDS-PAGE followed by western blotting against the HA-epitope. (C) COS7 cells were grown in the presence of 1.7 mM [1-^14C]photo-Met, a constant trace amount of [^3H]Phe and 3 mM of competing unlabeled amino acids as indicated in the legend. Protein was precipitated and protein-bound radioactivity was determined by scintillation counting. […] The control value obtained in the absence of competing amino acid (con) is set to 100. Data are average±SD of triplicate determinations.
If so, addition of the complementary naturally occurring amino acid should strongly reduce incorporation and inhibit photo-crosslinking. […] To find out if competition for cross-linking reflects competition for incorporation, we competed incorporation of [1-^14C]photo-Met with the same set of amino acids (FIG. 4c). […] It should be noted that Met, Val, Leu and Ile all are transported into cells by the L-type transport system^25, which presumably also transports the three photo-amino acids. The strong difference in competition by Met and Leu versus Val and Ile excludes competition at the level of uptake.

COS7 cells [5] = experiment: Cell viability after UV irradiation by trypan blue exclusion; format: cell-based, monkey; remark: listed apart in the source
Description: COS7 (monkey kidney) cells were grown in DMEM high glucose (Gibco no. 11995; with L-glutamine and Na-pyruvate)+10% FCS. Typically, 3 cm2 of cells are needed for a cross-linking experiment with detection by western blotting. At about 70%, medium was replaced by LM-4 (DMEM lacking Met, Leu, Ile and Val and phenol red, supplemented with 5% dialyzed FCS) or by LM-2 (LM-4+1 mM of each Ile and Val). Photo-amino acids were added to a final concentration of 4 mM photo-Leu and photo-Ile, 1.7 mM photo-Met and cells were cultivated for further 22 h followed by washing with PBS and UV-irradiation using a 200 W high pressure mercury lamp (Oriel Photomax) with a glass filter to remove wavelengths shorter 310 nm. The samples were placed at a distance of 38 cm to the light source, corresponding to a illuminated area of 105 mm diameter. […] We used an irradiation time 1-3 min for experiments with living cells. […] Lysis of cells, SDS-PAGE and western blotting were done as described^33. For immunoprecipitation, cells were lysed in 20 mM Hepes/NaOH pH 7.4, 100 mM NaCl, 5 mM EDTA, 1% Triton X 100, 0.5% sodium deoxycholate, the lysate was cleared with protein-A beads and incubated with beads that were preincubated with polyclonal anti-myc or anti-HA antibody. Beads were collected and washed three times each with 20 mM Hepes/NaOH pH 7.25, 0.5% CHAPS and with 100 mM Tris-HCl pH 8.3, 150 mM NaCl, 2 mM EDTA, 0.1% w/v SDS, 0.5% w/v Nonidet P40, 0.5% w/v sodiumdeoxycholate. Proteins were eluted from beads by heating with reducing SDS-PAGE sample buffer.
as §1

CC(C(N)C(=O)O)C1(C)N=N1 (stereo not drawn) [photo-Ile, 2R,S-Amino-3-R,S-methyl-4,4′-azi-pentanoic acid]
Cell viability (COS7 cells [1]): 99.6 ± 0.3% | formation of covalent caveolin dimers upon UV irradiation (caveolin-1): very little cross-linking | Protein synthesis (COS7 cells [2]): 62.8 ± 2.8 | effect on protein biosynthesis (COS7 cells [2]): no significant effect | beta-galactosidase activity [3]: 93 ± 9%

CC1(CC(N)C(=O)O)N=N1 [photo-Leu, L-2-amino-4,4′-azi-pentanoic acid]
Cell viability (COS7 cells [1]): 99.8 ± 0.2% | Cell viability (COS7 cells [4]; 10 min UV): 99.5 ± 0.3% | Cell viability (COS7 cells [4]; 10 min UV + 1 h chase): 91.5 ± 4.0% | Cell viability (COS7 cells [4]; 30 min UV): 98.8 ± 0.4% | Cell viability (COS7 cells [4]; 30 min UV + 1 h chase): 17.9 ± 3.2% | formation of covalent caveolin dimers upon UV irradiation (caveolin-1): significant formation of a cross-linked dimer | competition of cross-linking by Met, Val, Leu and Ile (HA-tagged human PGRMC1): competed mainly by Leu | Protein synthesis (COS7 cells [2]): 61.5 ± 1.7 | effect on protein biosynthesis (COS7 cells [2]): no significant effect | Cell viability (COS7 cells [5]; 1 min UV): 99.5 ± 0.2% | Cell viability (COS7 cells [5]; 1 min UV + 1 h chase): 95.5 ± 3.0% | Cell viability (COS7 cells [5]; 3 min UV): 99.6 ± 0.2% | Cell viability (COS7 cells [5]; 3 min UV + 1 h chase): 95.3 ± 1.8% | Cell viability (COS7 cells [5]; no UV + 1 h chase at 37 degree Celsius in PBS): 99.3 ± 0.5% | Cell viability (COS7 cells [5]; no UV, percent ± SD of viable cells): 99.5 ± 0.3% | beta-galactosidase activity [3]: 68 ± 9%
